How the values were obtained:
FgPT1 [1] = molecular target: T1, FgPT1 (Fusarium globosum, UniProt A0A8H5XPW9); assay: HPLC product formation, Michaelis-Menten fit; type: biochemical; settings: 1 mM DMAPP, 1 mM BaCl2, 100 mM Tris-HCl pH 7.5, 37 °C, apparent
T1 construct: gene FGLOB1_12591; full length, 426 residues, N-terminal His6 tag (pET-28a, synthetic gene), E. coli BL21(DE3), Ni-NTA
Excerpt: HPLC product formation, Michaelis-Menten fit on FgPT1

FgPT1 [2] = molecular target: T1, FgPT1; assay: HPLC / LC-MS product detection; type: biochemical; settings: prenyl donor; with flavanone acceptor, metal ion (Ba2+ best), Tris-HCl pH 7.5, 37 °C

T1 sequence (A0A8H5XPW9 entry or part of it): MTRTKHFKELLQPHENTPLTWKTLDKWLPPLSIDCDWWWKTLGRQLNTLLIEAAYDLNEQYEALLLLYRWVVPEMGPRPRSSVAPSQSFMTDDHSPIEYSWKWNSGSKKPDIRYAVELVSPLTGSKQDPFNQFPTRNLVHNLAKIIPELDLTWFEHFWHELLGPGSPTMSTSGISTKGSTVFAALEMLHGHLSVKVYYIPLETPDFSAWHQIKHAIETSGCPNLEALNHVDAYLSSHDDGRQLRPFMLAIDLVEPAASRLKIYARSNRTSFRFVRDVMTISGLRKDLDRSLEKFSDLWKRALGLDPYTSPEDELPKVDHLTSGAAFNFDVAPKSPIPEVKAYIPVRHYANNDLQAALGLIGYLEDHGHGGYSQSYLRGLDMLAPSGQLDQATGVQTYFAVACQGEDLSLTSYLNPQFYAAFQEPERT

Compound	KM (mM) (FgPT1 [1])	also measured
O=C1C[C@@H](c2ccc(O)cc2)Oc2cc(O)cc(O)c21 [compound 1, Naringenin]	0.26 ± (0.077) mM	
O=C1CC(c2ccccc2)Oc2cc(O)cc(O)c21 (racemic) [compound 5, Rac-pinocembrin]		KM (mM) (FgPT1 [1]; racemic substrate): 0.14 ± (0.037) mM
O=C1C[C@@H](c2ccc(O)c(O)c2)Oc2cc(O)cc(O)c21 [compound 3, Eriodictyol]	0.23 ± (0.026) mM	
CC(C)=CCOP(=O)(O)OP(=O)(O)O [DMAPP]		HPLC / LC-MS product detection (FgPT1 [2]): using DMAPP as the prenyl donor revealed catalytic activity exclusively toward six flavanones
COc1ccc([C@@H]2CC(=O)c3c(O)cc(O)cc3O2)cc1O [compound 2, Hesperetin]	0.94 ± (0.075) mM	
O=C1c2c(O)cc(O)cc2OCC1c1ccc(O)cc1 (stereo not shown) [compound 6, Dihydrogenistein]	0.14 ± (0.026) mM	
O=C1C[C@@H](c2ccc(O)cc2)Oc2cc(O)ccc21 [compound 4, Liquiritigenin]	0.93 ± (0.161) mM	

From paper PMC11990136, “Prenylation of Flavanones by an Aromatic Prenyltransferase from Fusarium globosum” (Molecules, 2025)
